Usually AC50 stands for the concentration giving half of the maximal activity seen.

The structures appear in SMILES notation. Counter-ions that a name gives are not always drawn. Like-named read-outs stand apart in the source and are kept apart here.

Among the data in patent publication US20250171438A1 (Agios Pharmaceuticals, Inc., priority 2022, published 2025) are AC50 values, retold here.

The test addresses T1, human PAH with the R408W mutation (Homo sapiens, UniProt P00439, R408W).
T1 construct: expressed in transfected cells
T1 sequence (P00439 1-452 R408W): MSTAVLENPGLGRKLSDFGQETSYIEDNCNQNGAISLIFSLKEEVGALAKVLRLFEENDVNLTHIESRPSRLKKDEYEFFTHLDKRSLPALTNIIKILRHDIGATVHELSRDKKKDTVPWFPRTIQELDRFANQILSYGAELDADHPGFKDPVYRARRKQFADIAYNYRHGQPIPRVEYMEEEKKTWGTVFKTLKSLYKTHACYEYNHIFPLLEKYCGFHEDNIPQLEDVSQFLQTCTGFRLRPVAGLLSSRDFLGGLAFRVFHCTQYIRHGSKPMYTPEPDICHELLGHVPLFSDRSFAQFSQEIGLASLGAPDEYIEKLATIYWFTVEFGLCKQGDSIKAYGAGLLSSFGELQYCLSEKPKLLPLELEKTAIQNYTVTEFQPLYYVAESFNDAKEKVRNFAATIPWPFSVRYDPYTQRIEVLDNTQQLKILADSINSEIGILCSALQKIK
Description: Cell Based Phenylalanine Flux Assay. On the set-up: scale not given here. The note with it: A375 cells expressing human R408W PAH, 13C-Tyrosine by LC-MS, average where tested multiple times.

[1] abbreviates: 24 hrs compound incubation, read-out: AC50.
Where [2] appears, read: 24 hrs with compound, read-out: AC50.

As for `O=C(c1nc2ccccc2s1)N1CCc2[nH]cnc2[C@H]1c1nc2ccccc2s1` [Example 1001, (S)-benzo[d]thiazol-2-yl(4-(benzo[d]thiazol-2-yl)-6,7-dihydro-1H-imidazo[4,5-c]pyridin-5(4H)-yl)methanone], the AC50 under setting [1] lay within 500 to 1000 nM. Consider `CC1CN(C(=O)c2cnco2)C(c2nc3c(F)cccc3s2)c2nc[nH]c21` (stereo not drawn), for which the AC50 under setting [2] was above 5000 nM. Regarding `O=C(c1cnc(-c2ccccn2)o1)N1CC2(CC2)c2[nH]cnc2[C@H]1c1nc2ccccc2s1` [Example 1653, (S)-(4′-(benzo[d]thiazol-2-yl)spiro[cyclopropane-1,7′-imidazo[4,5-c]pyridin]-5′(1′H,4′H,6′H)-yl)(2-(pyridin-2-yl)oxazol-5-yl)methanone], the AC50 under setting [1] lay in the range of 500 to 1000 nM. Consider `O=C(c1c(C(F)(F)F)nn2ccccc12)N1CCc2[nH]cnc2C1c1nc2ccccc2s1` (stereo not drawn), for which, for the setting “24 hrs with compound”, the AC50 entry is “E, E”.

For `Cc1nc(C(C)(C)S(C)(=O)=O)oc1C(=O)N1CCc2[nH]cnc2C1c1nc2c(F)cccc2s1` (stereo not drawn), the AC50 under setting [2] is 1000 to 5000 nM. As to `Cn1cc(-c2ncc(C(=O)N3CCc4[nH]cnc4[C@H]3c3nc4ccccc4[nH]3)o2)cn1` [(S)-(4-(1H-benzo[d]imidazol-2-yl)-6,7-dihydro-1H-imidazo[4,5-c]pyridin-5(4H)-yl)(2-(1-methyl-1H-pyrazol-4-yl)oxazol-5-yl)methanone hydrochloride], under setting [2], the AC50 was above 5000 nM.

For the compound `O=C(Cc1ccccn1)N1CCc2[nH]cnc2C1c1nc2ccccc2s1` (stereo not drawn), under setting [2], the AC50 lay in the range of 1000 to 5000 nM.

On to `CC1(C)CCC(c2ncc(C(=O)N3CCc4[nH]cnc4[C@H]3c3nc4ccccc4s3)s2)CC1` [Example 1353], for which the AC50 under setting [1] was below 500 nM. Same read-out and setting: to `O=C(c1ocnc1C(F)(F)F)N1CCc2[nH]cnc2[C@H]1c1nc2ccccc2[nH]1` [Example 994, (S)-(4-(1H-benzo[d]imidazol-2-yl)-6,7-dihydro-1H-imidazo[4,5-c]pyridin-5(4H)-yl)(4-(trifluoromethyl)oxazol-5-yl)methanone] belongs below 500 nM. As for `O=C(c1cncs1)N1CCc2[nH]cnc2C1c1nc2ccc(F)cc2s1` (stereo not drawn), the AC50 under setting [2] is 1000 to 5000 nM.

For the compound `O=C(c1cncs1)N1CCc2[nH]cnc2[C@H]1c1nc2cc(F)ccc2s1` [Example 1193, (S)-(4-(5-fluorobenzo[d]thiazol-2-yl)-6,7-dihydro-1H-imidazo[4,5-c]pyridin-5(4H)-yl)(thiazol-5-yl)methanone], the AC50 under setting [1] lay within 1000 to 5000 nM. Consider `Cc1ncoc1C(=O)N1C[C@@H](C)c2[nH]cnc2[C@@H]1c1nc2ccccc2s1` [Example 1548, ((4R,7R)-4-(benzo[d]thiazol-2-yl)-7-methyl-6,7-dihydro-1H-imidazo[4,5-c]pyridin-5(4H)-yl)(4-methyloxazol-5-yl)methanone], for which the AC50 under setting [1] is above 5000 nM. On to `O=C(c1cnn(C(F)F)c1)N1CCc2[nH]cnc2[C@H]1c1nc2ccccc2s1` [Example 1409], for which the AC50 under setting [1] is 500 to 1000 nM. As to `CN(C)Cc1ccc2c(C(=O)N3CCc4[nH]cnc4[C@H]3c3nc4ccccc4s3)cnn2c1` [Example 1311], under setting [1], the AC50 was in the range of 500 to 1000 nM. For the compound `Cc1nc(C(C)(C)N(C)C)oc1C(=O)N1CCc2[nH]cnc2[C@H]1c1nc2c(F)cccc2s1` [Example 2049, (S)-(2-(2-(dimethylamino)propan-2-yl)-4-methyloxazol-5-yl)(4-(4-fluorobenzo[d]thiazol-2-yl)-6,7-dihydro-1H-imidazo[4,5-c]pyridin-5(4H)-yl)methanone], the AC50 under setting [1] lay in the range of 1000 to 5000 nM. The same measure, in the same setting: to `CC(C)(C)c1ncc(C(=O)N2CCc3[nH]cnc3[C@@H]2c2nc3ccccc3s2)o1` [Example 1428, (R)-(4-(benzo[d]thiazol-2-yl)-6,7-dihydro-1H-imidazo[4,5-c]pyridin-5(4H)-yl)(2-(tert-butyl)oxazol-5-yl)methanone] belongs 500 to 1000 nM; to `CC(C)(C)OC(=O)N1CC(c2nnc(C(=O)N3CCc4[nH]cnc4[C@H]3c3nc4ccccc4s3)o2)C1` [Example 1893, (S)-tert-butyl 3-(5-(4-(benzo[d]thiazol-2-yl)-4,5,6,7-tetrahydro-1H-imidazo[4,5-c]pyridine-5-carbonyl)-1,3,4-oxadiazol-2-yl)azetidine-1-carboxylate], 500 to 1000 nM. Consider `Cn1nc(CC#N)nc1C(=O)N1CCc2[nH]cnc2C1c1nc2c(F)cccc2s1` (stereo not drawn), for which the AC50 under setting [2] is above 5000 nM. On to `O=C(c1cnco1)N1CCc2[nH]cnc2[C@@H]1c1nc2ccccc2s1` [Example 1098, (R)-(4-(benzo[d]thiazol-2-yl)-6,7-dihydro-1H-imidazo[4,5-c]pyridin-5(4H)-yl)(oxazol-5-yl)methanone], for which the AC50 under setting [1] is above 5000 nM. As to `O=C(c1ncc(Cl)s1)N1CCc2[nH]cnc2[C@@H]1c1nc2cc(F)ccc2s1` [Example 1262, (R)-(5-chlorothiazol-2-yl)(4-(5-fluorobenzo[d]thiazol-2-yl)-6,7-dihydro-1H-imidazo[4,5-c]pyridin-5(4H)-yl)methanone], the half-maximal activity concentration (AC50) under setting [1] was 1000 to 5000 nM. `COCCc1ncc(C(=O)N2CCc3[nH]cnc3C2c2nc3ccccc3s2)o1` (stereo not drawn): the AC50 under setting [2] was 1000 to 5000 nM. On to `O=C(c1cn[nH]c1Cl)N1CCc2[nH]cnc2[C@H]1c1nc2ccccc2s1` [Example 2036], for which the AC50 under setting [1] was below 500 nM. Take `O=C(Cc1ncc(C2CC2)s1)N1CCc2[nH]cnc2[C@@H]1c1nc2ccccc2s1` [Example 1460, (R)-1-(4-(benzo[d]thiazol-2-yl)-6,7-dihydro-1H-imidazo[4,5-c]pyridin-5(4H)-yl)-2-(5-cyclopropylthiazol-2-yl)ethanone]: under setting [1], the AC50 lay in the range of 1000 to 5000 nM. For `O=C(c1sc(C2CC2)nc1Cl)N1CCc2[nH]cnc2[C@H]1c1nc2c(F)cccc2s1` [Example 1631], the AC50 under setting [1] lay within 500 to 1000 nM.

In the case of `Cc1ccc2c(C(=O)N3CCc4[nH]cnc4C3c3nc4ccc(F)cc4s3)cnn2c1` (stereo not drawn), the AC50 under setting [2] is above 5000 nM. On to `CC(C)(F)c1ccc2c(C(=O)N3CCc4[nH]cnc4[C@H]3c3nc4ccccc4s3)cnn2c1` [Example 1479], for which the AC50 under setting [1] was below 500 nM. With `O=C(c1oc(-c2ccccn2)nc1C(F)F)N1CCc2[nH]cnc2[C@H]1c1nc2ccccc2s1` [Example 1795], the AC50 under setting [1] is below 500 nM. `O=C(C1CC1F)N1CCc2[nH]cnc2C1c1nc2ccccc2s1` (stereo not drawn): under setting [2], the AC50 was above 5000 nM. For the compound `O=C(CC1(O)CCC1)N1CCc2[nH]cnc2[C@@H]1c1nc2ccccc2s1` [Example 1658, (R)-1-(4-(benzo[d]thiazol-2-yl)-6,7-dihydro-1H-imidazo[4,5-c]pyridin-5(4H)-yl)-2-(1-hydroxycyclobutyl)ethanone], the AC50 under setting [1] is 500 to 1000 nM.

For the compound `CN(C)Cc1cc(C(=O)N2CCc3[nH]cnc3C2c2nc3c(F)cccc3s2)n(C)n1` (stereo not drawn), the AC50 under setting [2] is above 5000 nM. In the case of `O=C(c1oc(NC2CC2)nc1C(F)F)N1CCc2[nH]cnc2[C@@H]1c1nc2ccccc2s1` [Example 1716, (R)-(4-(benzo[d]thiazol-2-yl)-6,7-dihydro-1H-imidazo[4,5-c]pyridin-5(4H)-yl)(2-(cyclopropylamino)-4-(difluoromethyl)oxazol-5-yl)methanone], under setting [1], the AC50 was 1000 to 5000 nM. As to `CN1CCN(c2nc(C(F)(F)F)c(C(=O)N3CCc4[nH]cnc4[C@H]3c3nc4ccccc4s3)o2)CC1` [Example 1573], under setting [1], the AC50 is below 500 nM. For `Cc1cccc2sc([C@@H]3c4nc[nH]c4CCN3C(=O)c3cncs3)nc12` [Example 1305, (S)-(4-(4-methylbenzo[d]thiazol-2-yl)-6,7-dihydro-1H-imidazo[4,5-c]pyridin-5(4H)-yl)(thiazol-5-yl)methanone], under setting [1], the AC50 was 500 to 1000 nM.
